# Experimental data taken from patent publication US20190112580A1, “METHODS FOR TREATING CO[…] AND RELATED CULTURED CELLS” (priority 2017, published 2019).
# Tested on: CP myoblast cultures
# Assay: Real-time qPCR gene expression profiling in fusing CP myoblasts
# Assay type: cell-based, human
# Parameters: key to JAG2 Expression / ATP2A1 Expression / DLL1 Expression / MYF5 Expression / ATP2A2 Expression / JAG1 Expression / SIX1 Expression / MYH7 Expression / CDKN1A Expression / NRG1 Expression / DLK1 Expression: relative expression vs non-treated; ≥2 up, ≤0.5 down
# Procedure: To investigate whether additional signaling pathways and genes were affected by 5-AZA treatment, real-time qPCR was used to analyze the expression of 91 genes involved in myogenesis, neurogenesis and adipogenesis in fusing CP myoblasts after 24 hours of pretreatment with 5 μM of 5-AZA (Supp. Table 2A). […] Also, 5-AZA pretreatment led to upregulation of transcription regulators involved in myogenesis and other signaling pathways (BMI1, SIX1, SIX4, EGR3, FOXO1, MAPK14, MEF2A, MEF2C, MYF5, MYOG, NEUROD2, NOTCH2, PAX3, PAX7, PPARA, PPARD, PPARG, RPBJ, RARA). […] Impairment in other signaling pathways involved in myoblast fusion and myotube formation (e.g., TMEM8C/Myomaker, Rho GTPases, MAPKs, Calcineurin-NFATc2, NF-KB, WNT, MMPs) may also contribute to the decrease in myogenic potential of CP myoblasts.
# Myoblasts, treated or non-treated with 5 μM 5-AZA for 24 hours, were cultured in high serum medium until they reached 80-90% confluence. After switch to low-serum medium, myoblast preparations were allowed to differentiate for 24-72 hours before RNA extraction. Total RNA was isolated and purified from myoblast cell culture preparations using Trizol reagent (Ambion—Life Technologies) according to manufacturer's recommendations. First-strand cDNA synthesis from purified RNAs and qPCR amplification was performed using the GoTaq 2-Step RT-qPCR System kit (Promega) according to manufacturer's protocols. Resulting cDNAs were subjected to SYBR Green-based real-time amplification using a C1000 Thermal Cycler apparatus (Bio-Rad). Each PCR amplification reaction (20 μl volume) contained 100 ng of starting cDNA template and primers amplifying a specific gene. Gene expression profiling during myoblast differentiation was investigated using predesigned 96-well gene panels for use with SYBR Green (SABioscience) (Tables 1A and 2A).
# The predesigned 96-well gene panels utilized expertly designed and experimentally validated PCR primers and assays and included 3 reference genes for relative gene expression normalization and quantification: HPRT1, TBP and AP3DI. These reference genes were specifically validated for our experimental treatment and conditions and were selected among 15 experimentally tested candidates and analyzed using the software packages Bestkeeper, geNorm and Normfinder. Cycling conditions for SYBR Green primers consisted of an initial step at 50° C. (2 minutes) and a first denaturizing step at 95° C. (2 minutes), followed by 50 cycles of a thermal step protocol consisting of 95° C. (20 seconds), 60° C. (20 seconds) and 72° C. (20 seconds). A standard melt curve profiling consisting of a 65-95° C. thermal ramp was performed at the end of each protocol. Gene expression quantification was performed using Bio-Rad CFX Manager software. Positively and negatively regulated genes were selected following a P<0.05 and a 2 or 0.5 expression level respectively. Functional gene classification was performed using The Database for Annotation, Visualization and Integrated Discovery (DAVID) v6.8 (at <https://david.ncifcrf.gov/>).
# [1] = 5 μM 24 hours pretreatment vs non-treated CP, 48-72 hours of differentiation
# [2] = gene ACTA1, 5 μM 24 h pretreatment vs non-treated CP
# [3] = gene ACTG1, 5 μM 24 h pretreatment vs non-treated CP
# [4] = gene ACTN2, 5 μM 24 h pretreatment vs non-treated CP
# [5] = gene ATP2A1, 5 μM 24 h pretreatment vs non-treated CP
# [6] = gene ATP2A2, 5 μM 24 h pretreatment vs non-treated CP
# [7] = gene BCL2, 5 μM 24 h pretreatment vs non-treated CP
# [8] = gene BMI1, 5 μM 24 h pretreatment vs non-treated CP
# [9] = gene CAV3, 5 μM 24 h pretreatment vs non-treated CP
# [10] = gene CDKN1A, 5 μM 24 h pretreatment vs non-treated CP
# [11] = gene DES, 5 μM 24 h pretreatment vs non-treated CP
# [12] = gene DLK1, 5 μM 24 h pretreatment vs non-treated CP
# [13] = gene DLL1, 5 μM 24 h pretreatment vs non-treated CP
# [14] = gene EGR3, 5 μM 24 h pretreatment vs non-treated CP
# [15] = gene FHL2, 5 μM 24 h pretreatment vs non-treated CP
# [16] = gene FOXO1, 5 μM 24 h pretreatment vs non-treated CP
# [17] = gene ITGA7, 5 μM 24 h pretreatment vs non-treated CP
# [18] = gene ITGB1, 5 μM 24 h pretreatment vs non-treated CP
# [19] = gene JAG1, 5 μM 24 h pretreatment vs non-treated CP
# [20] = gene JAG2, 5 μM 24 h pretreatment vs non-treated CP
# [21] = gene LRP4, 5 μM 24 h pretreatment vs non-treated CP
# [22] = gene MAPK14, 5 μM 24 h pretreatment vs non-treated CP
# [23] = gene MEF2A, 5 μM 24 h pretreatment vs non-treated CP
# [24] = gene MEF2C, 5 μM 24 h pretreatment vs non-treated CP
# [25] = gene MET, 5 μM 24 h pretreatment vs non-treated CP
# [26] = gene MYF5, 5 μM 24 h pretreatment vs non-treated CP
# [27] = gene MYF6, 5 μM 24 h pretreatment vs non-treated CP
# [28] = gene MYH2, 5 μM 24 h pretreatment vs non-treated CP
# [29] = gene MYH3, 5 μM 24 h pretreatment vs non-treated CP
# [30] = gene MYH7, 5 μM 24 h pretreatment vs non-treated CP
# [31] = gene MYH8, 5 μM 24 h pretreatment vs non-treated CP
# [32] = gene MYH9, 5 μM 24 h pretreatment vs non-treated CP
# [33] = gene MYOG, 5 μM 24 h pretreatment vs non-treated CP
# [34] = gene NCAM1, 5 μM 24 h pretreatment vs non-treated CP
# [35] = gene NEUROD2, 5 μM 24 h pretreatment vs non-treated CP
# [36] = gene NOTCH2, 5 μM 24 h pretreatment vs non-treated CP
# [37] = gene NRG1, 5 μM 24 h pretreatment vs non-treated CP
# [38] = gene PAK1, 5 μM 24 h pretreatment vs non-treated CP
# [39] = gene PAX3, 5 μM 24 h pretreatment vs non-treated CP
# [40] = gene PAX7, 5 μM 24 h pretreatment vs non-treated CP
# [41] = gene PDGFRA, 5 μM 24 h pretreatment vs non-treated CP
# [42] = gene PDGFRB, 5 μM 24 h pretreatment vs non-treated CP
# [43] = gene PPARA, 5 μM 24 h pretreatment vs non-treated CP
# [44] = gene PPARD, 5 μM 24 h pretreatment vs non-treated CP
# [45] = gene PPARG, 5 μM 24 h pretreatment vs non-treated CP
# [46] = gene RARA, 5 μM 24 h pretreatment vs non-treated CP
# [47] = gene RBPJ, 5 μM 24 h pretreatment vs non-treated CP
# [48] = gene SHH, 5 μM 24 h pretreatment vs non-treated CP
# [49] = gene SIX1, 5 μM 24 h pretreatment vs non-treated CP
# [50] = gene SIX4, 5 μM 24 h pretreatment vs non-treated CP
# [51] = gene TMEM8C, 5 μM 24 h pretreatment vs non-treated CP
smiles,measurement,setting,value
"Nc1ncn([C@@H]2O[C@H](CO)[C@@H](O)[C@H]2O)c(=O)n1 [5-AZA, 5-azacytidine]",genes significantly downregulated (of 91 genes),[1],7 genes
same,genes significantly upregulated (of 91 genes),[1],43 genes
same,ACTA1 Expression,[2],5.23
same,ACTA1 Regulation,[2],5.2
same,ACTG1 Expression,[3],0.09
same,ACTG1 Regulation,[3],−10.7
same,ACTN2 Expression,[4],5.96
same,ACTN2 Regulation,[4],6.0
same,ATP2A1 Expression,[5],7.87
same,ATP2A1 Regulation,[5],7.9
same,ATP2A2 Expression,[6],3.26
same,ATP2A2 Regulation,[6],3.3
same,BCL2 Expression,[7],5.33
same,BCL2 Regulation,[7],5.3
same,BMI1 Expression,[8],2.97
same,BMI1 Regulation,[8],3.0
same,CAV3 Expression,[9],2.92
same,CAV3 Regulation,[9],2.9
same,CDKN1A Expression,[10],0.23
same,CDKN1A Regulation,[10],−4.4
same,DES Expression,[11],6.23
same,DES Regulation,[11],6.2
same,DLK1 Expression,[12],16.51
same,DLK1 Regulation,[12],16.5
same,DLL1 Expression,[13],7.05
same,DLL1 Regulation,[13],7.0
same,EGR3 Expression,[14],14.93
same,EGR3 Regulation,[14],14.9
same,FHL2 Expression,[15],0.45
same,FHL2 Regulation,[15],−2.2
same,FOXO1 Expression,[16],7.30
same,FOXO1 Regulation,[16],7.3
same,ITGA7 Expression,[17],4.22
same,ITGA7 Regulation,[17],4.2
same,ITGB1 Expression,[18],2.11
same,ITGB1 Regulation,[18],2.1
same,JAG1 Expression,[19],2.61
same,JAG1 Regulation,[19],2.6
same,JAG2 Expression,[20],10.19
same,JAG2 Regulation,[20],10.2
same,LRP4 Expression,[21],3.01
same,LRP4 Regulation,[21],3.0
same,MAPK14 Expression,[22],2.84
same,MAPK14 Regulation,[22],2.8
same,MEF2A Expression,[23],10.08
same,MEF2A Regulation,[23],10.1
same,MEF2C Expression,[24],5.79
same,MEF2C Regulation,[24],5.8
same,MET Expression,[25],2.07
same,MET Regulation,[25],2.1
same,MYF5 Expression,[26],6.99
same,MYF5 Regulation,[26],7.0
same,MYF6 Expression,[27],3.77
same,MYF6 Regulation,[27],3.8
same,MYH2 Expression,[28],6.99
same,MYH2 Regulation,[28],7.0
same,MYH3 Expression,[29],6.74
same,MYH3 Regulation,[29],6.7
same,MYH7 Expression,[30],2.15
same,MYH7 Regulation,[30],2.1
same,MYH8 Expression,[31],2.51
same,MYH8 Regulation,[31],2.5
same,MYH9 Expression,[32],0.17
same,MYH9 Regulation,[32],−5.8
same,MYOG Expression,[33],7.72
same,MYOG Regulation,[33],7.7
same,NCAM1 Expression,[34],6.55
same,NCAM1 Regulation,[34],6.6
same,NEUROD2 Expression,[35],56.33
same,NEUROD2 Regulation,[35],56.3
same,NOTCH2 Expression,[36],3.12
same,NOTCH2 Regulation,[36],3.1
same,NRG1 Expression,[37],0.47
same,NRG1 Regulation,[37],−2.1
same,PAK1 Expression,[38],4.49
same,PAK1 Regulation,[38],4.5
same,PAX3 Expression,[39],12.50
same,PAX3 Regulation,[39],12.5
same,PAX7 Expression,[40],2.88
same,PAX7 Regulation,[40],2.9
same,PDGFRA Expression,[41],0.38
same,PDGFRA Regulation,[41],−2.6
same,PDGFRB Expression,[42],0.34
same,PDGFRB Regulation,[42],−2.9
same,PPARA Expression,[43],2.69
same,PPARA Regulation,[43],2.7
same,PPARD Expression,[44],3.55
same,PPARD Regulation,[44],3.6
same,PPARG Expression,[45],24.42
same,PPARG Regulation,[45],24.4
same,RARA Expression,[46],2.19
same,RARA Regulation,[46],2.2
same,RBPJ Expression,[47],3.84
same,RBPJ Regulation,[47],3.8
same,SHH Expression,[48],23.75
same,SHH Regulation,[48],23.8
same,SIX1 Expression,[49],2.21
same,SIX1 Regulation,[49],2.2
same,SIX4 Expression,[50],3.20
same,SIX4 Regulation,[50],3.2
same,TMEM8C Expression,[51],3.59
same,TMEM8C Regulation,[51],3.6
